These are literature values, as cited in patent US20240131064A1, “TREATMENT OF CANCER PATIENTS WITH TUMOR INFILTRATING LYMPHOCYTE THERAPIES IN COMBINATION WITH BRAF INHIBITORS AND/OR MEK INHIBITORS” (Iovance Biotherapeutics, Inc., priority 2020, published 2024).

Read-outs that look alike come from different tables or passages of the source.

The subject of data set [1] is BRAF V600E mutation-positive, unresectable or metastatic melanoma. Particulars: 187 patients treated, no prior BRAF or MEK inhibitor.
For data set [2] the following is noted: percent of patients.

`CC(C)(C)c1nc(-c2cccc(NS(=O)(=O)c3c(F)cccc3F)c2F)c(-c2ccnc(N)n2)s1` [dabrafenib]: the “median duration of response (DOR)” value in data set [1] is recorded as 5.6 months.

Take “des-alanyl-1, serine-125 human IL-2 [aldesleukin]”: in the data set with metastatic melanoma (high-dose aldesleukin, metastatic melanoma), the “overall objective response rate (ORR)” value is on record as 16%. In addition, the “durable complete tumor regressions (CRs)” value with metastatic melanoma (high-dose aldesleukin, treated patients with metastatic melanoma) is reported as “up to 6%”.

As to “ipilimumab: CTLA-4 inhibitor, heavy chain SEQ ID NO:208, light chain SEQ ID NO:209”, in data set [2], the “Treatment-related adverse events leading to discontinuation of therapy” value is 14.8%. As to “nivolumab: PD-1 inhibitor, heavy chain SEQ ID NO:158, light chain SEQ ID NO:159”, the “rate of durable responses relative to aldesleukin treatment” value in the data set with metastatic melanoma (metastatic melanoma) is “approximately double”. For the same compound, in the data set on metastatic melanoma (previously treated patients), the ORR was 32%. Further, the “Treatment-related adverse events leading to discontinuation of therapy” value in data set [2] is on record as 7.7%.

As for “pembrolizumab: PD-1 inhibitor, heavy chain SEQ ID NO:168, light chain SEQ ID NO:169”, the ORR in the data set on metastatic melanoma (following prior therapy with ipilimumab) was 21%. Also, the “rate of durable responses relative to aldesleukin treatment” value with metastatic melanoma (metastatic melanoma) is “approximately double”.
